Legend:
[1] = system: E. coli (mc4100 strain); experiment: time-resolved second-harmonic scattering (SHS) of dye uptake by living bacteria, Gram-negative; type: cell-based
Procedure: (§1) Discrete colonies of E. coli (mc4100 strain) and L. rhamnosus ([…] strain) were grown on Luria Broth agar (Sigma-Aldrich) plates. Experimental samples, prepared from single colonies, were cultured (37° C., 150 rpm shaking) in Terrific Broth (TB, Sigma-Aldrich) to late-log/early stationary phase. Samples were lightly pelletized by centrifugation (ca. 1500 g for 2 min) and washed in 1×PBS to remove waste and residual TB. […] Final sample concentrations were maintained at 10 μM (MG) and 50 μM (CV). The 800 nm output from a Ti:sapphire laser (Coherent, […], oscillator only, 50 fs pulse duration, 4 nJ pulse energy, 76 MHz repetition rate, 0.4 W average power) was used as a fundamental light source. As depicted in FIG. 2A, SHS was measured while the sample circulated through a liquid flow system. To ensure collection of the SH signal solely from the sample, a long-pass filter (Schott, RG695) was placed in front of the focusing lens immediately before the sample jet. […] The signal was then detected by a photomultiplier (Hamamatsu, […]), amplified (Stanford Research Systems, SR440), and processed through a correlated photon counting system (Stanford Research Systems, SRS SR400). As a means of separating the surface specific SH response from the hyper-Rayleigh scattering (HRS) of the bulk dye solution, SHS was first measured from the dye solution in the absence of cells. […] To ensure rapid mixing of the suspension, in addition to circulating through the system, the contents of the sample reservoir were continuously stirred.

[2] = system: L. rhamnosus (R0011 strain); experiment: time-resolved second-harmonic scattering (SHS) of dye uptake by living bacteria, Gram-positive; type: cell-based, Lactobacillus (L.) rhamnosus
Procedure: as §1

[3] = system: E. coli (mc4100 strain); conditions: prior SHS studies, living E. coli; cited from earlier work
[4] = pH=7.2; cited from earlier work
[5] = E. coli added ca. 10 s, 10 μM MG, 50 μM CV, FIG. 2B

SMILES | time of onset of second rise of SHS signal (dye has diffused across PM and adsorbs onto outer surface of CM) [1, 5] | time until which second rise of SHS signal continues to grow, then stable plateau ([1]; E. coli added ca. 10 s, 50 μM CV, FIG. 2B) | late time SHS signal relative to HRS baseline ([1]; Gram-negative cells, 50 μM CV, FIG. 4) | fraction of CV from the bulk extracellular solution drawn into the Gram-positive cells ([2]; 50 μM CV) | reduction of the HRS background ([2]; 50 μM CV, after fast transport event, observation time 2000+ s, FIG. 4) [%] | removal of CV from the bulk solution ([2]; 50 μM CV, inferred from reduction of HRS background) | late time SHS signal relative to HRS baseline ([2]; Gram-positive cells, 50 μM CV, FIG. 4) | second rise of SHS signal (arrival at CM) ([2]; within the 2000+ s observation time, also at higher concentrations) | ability to cross bacterial membranes (OM, CM) [3] | fraction of molecules that are cationic [4] [%] | time of second decay of SHS signal (dye crosses the CM) ([1]; E. coli added ca. 10 s, 10 μM MG, FIG. 2B) [s] | MG uptake kinetics compared with E. coli ([2]; 10 μM MG, FIG. 6) | fraction of molecules in solution that are neutral [4]
CN(C)c1ccc(C(=C2C=CC(=[N+](C)C)C=C2)c2ccc(N(C)C)cc2)cc1 [CV, crystal violet] | roughly 70 s | about 400 s | positive response | ca. 30% | 30 | ca. 15 μM | negative response | no second rise of SHS signal is ever observed | unable to cross the bacterial CM | 100 | – | – | –
CN(C)c1ccc(C(=C2C=CC(=[N+](C)C)C=C2)c2ccccc2)cc1 [MG, malachite green] | around 25 s | – | – | – | – | – | – | – | cross both the OM and CM | – | ~120 | nearly identical transport curves | more than 50%
